Where two headings read alike, the source gives them in different places.
Key:
Type in all cases: biochemical
Recombinant Human MMP-13 = biological target: T1, Recombinant Human MMP-13 (Homo sapiens, UniProt P45452); assay: MMP-13 inhibitory activity (MMP-13 specific fluorescent substrate with quencher)
T1 construct: purchased R&D systems 511-MM
How it was run: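 IC50 (μM) derived from % inhibition, normalised to wells without enzyme and without inhibitor, fluorescence read at 325/405 nm. Enzyme and compound preceded addition of the quenched 7-MCA…DPA substrate; Tris-HCl buffer, 25 °C for 1 h, acetic-acid stop.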

aggrecanase-1 = biological target: T2, aggrecanase-1 (Homo sapiens, UniProt O75173); assay: Aggrecanase-1 inhibitory action (Particle Assay, GAG release from aggrecan-containing polyacrylamide particles)
T2 sequence (O75173 213-837): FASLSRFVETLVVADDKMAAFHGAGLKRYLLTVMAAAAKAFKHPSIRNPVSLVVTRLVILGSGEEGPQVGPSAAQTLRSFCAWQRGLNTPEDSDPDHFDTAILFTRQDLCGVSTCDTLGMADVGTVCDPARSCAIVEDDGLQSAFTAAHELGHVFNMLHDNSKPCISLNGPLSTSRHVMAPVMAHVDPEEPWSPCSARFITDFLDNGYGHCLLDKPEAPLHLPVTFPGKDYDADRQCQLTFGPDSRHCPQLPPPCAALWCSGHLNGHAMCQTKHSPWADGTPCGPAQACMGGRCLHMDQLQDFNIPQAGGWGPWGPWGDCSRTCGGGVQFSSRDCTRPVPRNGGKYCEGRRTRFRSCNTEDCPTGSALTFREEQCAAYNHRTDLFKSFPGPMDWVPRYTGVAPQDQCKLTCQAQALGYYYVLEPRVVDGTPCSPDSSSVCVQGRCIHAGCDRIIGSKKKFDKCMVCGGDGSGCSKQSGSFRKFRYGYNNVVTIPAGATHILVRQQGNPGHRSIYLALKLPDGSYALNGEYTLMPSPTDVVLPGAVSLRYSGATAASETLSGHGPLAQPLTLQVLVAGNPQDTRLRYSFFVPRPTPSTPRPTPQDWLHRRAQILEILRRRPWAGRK
How it was run: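 Readout was dimethylmethylene blue absorbance (595 nm) of glycosaminoglycan liberated into supernatant, calibrated with whale chondroitin sulfate. Substrate was aggrecan in polyacrylamide particles, digested 15 h at 37° C in Tris-HCl; TC50 (μM) derived from inhibition relative to no-enzyme and no-inhibitor controls.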

MMP-1 = biological target: T3, MMP-1 (Homo sapiens, UniProt P03956); assay: MMP-1 inhibitory action (Type I collagen Activity Measurement kit, FITC-labeled collagen type I)
T3 sequence (P03956 100-469): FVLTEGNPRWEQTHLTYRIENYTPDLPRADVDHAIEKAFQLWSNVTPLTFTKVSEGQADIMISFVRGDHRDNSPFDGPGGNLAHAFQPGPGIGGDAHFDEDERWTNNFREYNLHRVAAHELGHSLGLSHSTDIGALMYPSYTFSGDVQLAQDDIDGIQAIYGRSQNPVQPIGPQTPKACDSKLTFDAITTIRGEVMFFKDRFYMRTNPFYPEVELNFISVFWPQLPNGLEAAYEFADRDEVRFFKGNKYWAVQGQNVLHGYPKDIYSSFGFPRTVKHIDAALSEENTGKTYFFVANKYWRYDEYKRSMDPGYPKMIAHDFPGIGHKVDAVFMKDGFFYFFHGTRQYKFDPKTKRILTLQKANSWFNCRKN

[1] = Experimental Example 3, read-out: IC50 MMP13
[2] = Experimental Example 1, read-out: IC50 AG1
[3] = Experimental Example 2, read-out: IC50 MMP1
[4] = Recombinant Human MMP-13, fluorescent substrate, 25° C. for 1 h, read-out: IC50 MMP13 (Experimental Example 3)
[5] = aggrecanase-1 inhibitory action, read-out: IC50 AG1 (Experimental Example 1)
[6] = MMP-1 inhibitory action, FITC-labeled collagen type I, 37° C. for 3 hr, read-out: IC50 MMP1 (Experimental Example 2)

Structure (SMILES)	IC50 (Recombinant Human MMP-13; [1])	IC50 (aggrecanase-1; [2])	IC50 (MMP-1; [3])	IC50 (Recombinant Human MMP-13; [4])	IC50 (aggrecanase-1; [5])	IC50 (MMP-1; [6])
C[C@]1(c2ccccc2)C[C@@]1(NS(=O)(=O)c1ccc(-c2ccc(Cl)cc2Cl)s1)C(=O)O [Example 2-566]	≥ 1000 nM	< 1000 nM	≥ 1000 nM	–	–	–
C[C@]1(c2ccccc2)C[C@@]1(NS(=O)(=O)c1ccc(/C=C/C(F)(F)F)s1)C(=O)O [Example 2-562]	≥ 1000 nM	≥ 1000 nM	≥ 1000 nM	–	–	–
CC1[C@H](c2ccccc2)[C@]1(NS(=O)(=O)N1CCN(c2nc3ccccc3o2)CC1)C(=O)O (stereo partly drawn) [Example 2-464]	≥ 1000 nM	≥ 1000 nM	≥ 10000 nM	–	–	–
CN(C)C(=O)CSCC1(c2ccccc2)CC1(NS(=O)(=O)c1ccc(-c2ccc(Cl)cc2)s1)C(=O)O (stereo not drawn) [Example 2-357]	< 100 nM	< 100 nM	≥ 1000 nM	–	–	–
O=C(O)C1(NS(=O)(=O)c2ccc(-c3ccc(Cl)cc3)s2)CC1c1cccc(CCO)c1 (stereo not drawn) [Example 2-109]	–	–	–	< 100 nM	< 100 nM	≥ 10000 nM
COCc1cc(-c2ccc(S(=O)(=O)N[C@@]3(C(=O)O)C[C@@H]3c3ccccc3)s2)no1 [Example 2-110]	–	–	–	< 100 nM	< 1000 nM	≥ 1000 nM
O=C(O)C1(NS(=O)(=O)c2ccc(-c3cc(C(F)(F)F)on3)s2)CC1c1cccc(CCCO)c1 (stereo not drawn) [Example 2-236]	–	–	–	< 100 nM	< 1000 nM	≥ 1000 nM
O=C(NC[C@H]1CCCO1)OCC1(c2ccccc2)CC1(NS(=O)(=O)c1ccc(-c2cc(C(F)(F)F)on2)s1)C(=O)O (stereo partly drawn) [Example 2-309]	< 1000 nM	< 1000 nM	≥ 1000 nM	–	–	–
C[C@]1(c2ccccc2)C[C@@]1(NS(=O)(=O)c1ccc(-c2ccc3c(c2)OCO3)s1)C(=O)O [Example 2-449]	< 100 nM	< 100 nM	≥ 1000 nM	–	–	–
CCNC(=O)NCC1(c2ccccc2)CC1(NS(=O)(=O)c1ccc(-c2ccc(Cl)cc2)s1)C(=O)O (stereo not drawn) [Example 2-396]	< 1000 nM	< 1000 nM	≥ 10000 nM	–	–	–
CC1[C@H](c2ccccc2)[C@]1(NS(=O)(=O)c1ccc(-c2cc(C(F)F)on2)cc1)C(=O)O (stereo partly drawn) [Example 2-401]	< 100 nM	< 100 nM	< 1000 nM	–	–	–
O=C(O)C1(NS(=O)(=O)c2ccc(-c3ccc(Cl)cc3)s2)CC1c1cccc(OCCO)c1 (stereo not drawn) [Example 1-86]	–	–	–	< 1000 nM	< 1000 nM	≥ 1000 nM
CN1CCN(C(=O)CCc2cccc(C3CC3(NS(=O)(=O)c3ccc(-c4ccc(Cl)cc4)s3)C(=O)O)c2)CC1 (stereo not drawn) [Example 2-210]	–	–	–	< 100 nM	< 1000 nM	≥ 10000 nM
C[C@]1(c2ccccc2)C[C@@]1(NS(=O)(=O)c1ccc(-c2cc(C(F)(F)F)on2)s1)C(=O)O [Example 2-6, (1S,2R)-2-methyl-2-phenyl-1-[5-(5-trifluoromethyl-isoxazol-3-yl)-thiophene-2-sulfonylamino]-cyclopropanecarboxylic acid]	–	–	–	< 1000 nM	< 100 nM	≥ 1000 nM
CN1CCN(C(=O)Cc2ccccc2C2CC2(NS(=O)(=O)c2ccc(-c3ccc(Cl)cc3)s2)C(=O)O)CC1 (stereo not drawn) [Example 2-195]	–	–	–	< 1000 nM	< 1000 nM	≥ 10000 nM
C[C@]1(c2ccccc2)C[C@@]1(NS(=O)(=O)c1ccc(-c2ccc(Cl)c(F)c2)s1)C(=O)O [Example 2-434]	< 1000 nM	< 100 nM	≥ 1000 nM	–	–	–
O=C(O)C1(NS(=O)(=O)N2CCC(Oc3ccc(F)cc3)CC2)CC1c1ccccc1 (stereo not drawn) [Example 2-145]	–	–	–	≥ 1000 nM	≥ 10000 nM	≥ 10000 nM
O=C(O)[C@]1(NS(=O)(=O)c2ccc(-c3ccc(Cl)cn3)s2)C[C@@H]1c1ccccc1 [Example 1-131]	–	–	–	< 100 nM	< 100 nM	≥ 1000 nM
O=C(O)C1(NS(=O)(=O)c2ccc(-c3ccc(Cl)cc3)s2)CC1c1ccc(N2CCOCC2)cc1 (stereo not drawn) [Example 2-245]	–	–	–	< 1000 nM	≥ 1000 nM	≥ 10000 nM
Cc1ccc(-c2ccccc2C2CC2(NS(=O)(=O)c2ccc(-c3ccc(Cl)cc3)s2)C(=O)O)cc1 (stereo not drawn) [Example 2-40]	–	–	–	< 1000 nM	< 1000 nM	≥ 10000 nM

Structure (SMILES)	IC50 (Recombinant Human MMP-13; [1])	IC50 (aggrecanase-1; [2])	IC50 (MMP-1; [3])	IC50 (Recombinant Human MMP-13; [4])	IC50 (aggrecanase-1; [5])	IC50 (MMP-1; [6])
CC(=O)NCC1(c2ccccc2)CC1(NS(=O)(=O)c1ccc(-c2ccc(Cl)cc2)s1)C(=O)O (stereo not drawn) [Example 2-376]	< 1000 nM	< 1000 nM	≥ 10000 nM	–	–	–
O=C(Nc1ccccc1)c1ccc(S(=O)(=O)NC2(C(=O)O)CC2c2ccccc2)s1 (stereo not drawn) [Example 2-96]	–	–	–	< 1000 nM	≥ 10000 nM	≥ 10000 nM
O=C(O)C1(NS(=O)(=O)c2ccc(-c3ccc(Cl)cc3)s2)CC1c1cccc(Oc2cccnc2)c1 (stereo not drawn) [Example 1-88]	–	–	–	< 1000 nM	< 100 nM	≥ 10000 nM
CC(C)(O)COc1ccccc1C1CC1(NS(=O)(=O)c1ccc(-c2ccc(Cl)cc2)s1)C(=O)O (stereo not drawn) [Example 2-25]	–	–	–	< 1000 nM	< 100 nM	≥ 10000 nM
CC1[C@](C)(c2ccccc2)[C@]1(NS(=O)(=O)c1ccc(-c2cc(C(F)(F)F)on2)s1)C(=O)O (stereo partly drawn) [Example 2-623]	< 100 nM	< 100 nM	< 1000 nM	–	–	–
CC1[C@H](c2ccccc2)[C@]1(NS(=O)(=O)c1ccc(-c2cn3cccnc3n2)s1)C(=O)O (stereo partly drawn) [Example 2-571]	< 1000 nM	≥ 1000 nM	≥ 1000 nM	–	–	–
COCCCC1(c2ccccc2)CC1(NS(=O)(=O)c1ccc(-n2cc(Cl)cn2)s1)C(=O)O (stereo not drawn) [Example 2-560]	< 1000 nM	< 1000 nM	≥ 1000 nM	–	–	–
CN1CCN(CCOc2cccc(C3CC3(NS(=O)(=O)c3ccc(-c4ccc(Cl)cc4)s3)C(=O)O)c2)CC1 (stereo not drawn) [Example 2-198]	–	–	–	< 1000 nM	< 1000 nM	≥ 10000 nM
O=C(O)C1(NS(=O)(=O)c2ccc(-c3ccc(Cl)cc3)s2)CC1c1cccc([N+](=O)[O-])c1 (stereo not drawn) [Example 1-127]	–	–	–	< 1000 nM	< 100 nM	≥ 1000 nM
Nc1cccc(C2CC2(NS(=O)(=O)c2ccc(-c3ccc(Cl)cc3)cc2)C(=O)O)c1 (stereo not drawn) [Example 1-18]	–	–	–	< 100 nM	< 1000 nM	≥ 1000 nM
CC(C)C1(c2ccccc2)CC1(NS(=O)(=O)c1ccc(-c2ccc(Cl)cc2)s1)C(=O)O (stereo not drawn) [Example 2-123]	–	–	–	< 1000 nM	< 1000 nM	≥ 10000 nM
CC1[C@H](c2ccccc2)[C@]1(NS(=O)(=O)N1CCC(OCc2ccc(Cl)cc2Cl)C1)C(=O)O (stereo partly drawn) [Example 2-553]	≥ 1000 nM	≥ 1000 nM	≥ 1000 nM	–	–	–
NCc1ccc(C2CC2(NS(=O)(=O)c2ccc(-c3ccc(Cl)cc3)s2)C(=O)O)cc1 (stereo not drawn) [Example 2-265]	–	–	–	< 1000 nM	< 1000 nM	≥ 10000 nM
COc1cnn(-c2ccc(S(=O)(=O)N[C@@]3(C(=O)O)C(C)[C@@H]3c3ccccc3)s2)c1 (stereo partly drawn) [Example 2-492]	< 100 nM	< 100 nM	< 100 nM	–	–	–
O=C(NO)C1(NS(=O)(=O)c2ccc(-c3cc(C(F)(F)F)on3)s2)C2Cc3ccccc3C21 (stereo not drawn) [Example 2-495]	< 100 nM	< 100 nM	< 100 nM	–	–	–
Cc1nc(-c2ccc(S(=O)(=O)N[C@@]3(C(=O)O)C[C@@H]3c3ccccc3)s2)no1 [Example 2-51]	–	–	–	≥ 1000 nM	≥ 1000 nM	≥ 10000 nM
O=C(O)C1(NS(=O)(=O)c2ccc(-c3ccc(Cl)cc3)cc2)CC1c1cccc(OCCN2CCOCC2)c1 (stereo not drawn) [Example 1-74]	–	–	–	< 100 nM	< 1000 nM	≥ 1000 nM
O=C(NCC1(c2ccccc2)CC1(NS(=O)(=O)c1ccc(-c2ccc(Cl)cc2)s1)C(=O)O)[C@@H]1CCCO1 (stereo partly drawn) [Example 2-385]	< 1000 nM	< 1000 nM	≥ 10000 nM	–	–	–
C[C@]1(c2ccccc2)C[C@@]1(NS(=O)(=O)c1ccc(-c2ccc(F)cn2)s1)C(=O)O [Example 2-416]	< 1000 nM	< 1000 nM	≥ 1000 nM	–	–	–
